The record followed here is ChEMBL document CHEMBL5150069, “Solid-Phase Synthesis of Cereblon-Recruiting Selective Histone Deacetylase 6 Degraders (HDAC6 PROTACs) with Antileukemic Activity” (J Med Chem, 2022).

Each structure is given as a SMILES string. pEC50, pIC50: −log10 of the molar value. Calls of active or inactive are those of the source. The rule behind the calls is not given here.

The target of assay [1] is T1, Protein deacetylase HDAC6 (Homo sapiens, UniProt Q9UBN7).
T1 sequence (Q9UBN7 whole entry): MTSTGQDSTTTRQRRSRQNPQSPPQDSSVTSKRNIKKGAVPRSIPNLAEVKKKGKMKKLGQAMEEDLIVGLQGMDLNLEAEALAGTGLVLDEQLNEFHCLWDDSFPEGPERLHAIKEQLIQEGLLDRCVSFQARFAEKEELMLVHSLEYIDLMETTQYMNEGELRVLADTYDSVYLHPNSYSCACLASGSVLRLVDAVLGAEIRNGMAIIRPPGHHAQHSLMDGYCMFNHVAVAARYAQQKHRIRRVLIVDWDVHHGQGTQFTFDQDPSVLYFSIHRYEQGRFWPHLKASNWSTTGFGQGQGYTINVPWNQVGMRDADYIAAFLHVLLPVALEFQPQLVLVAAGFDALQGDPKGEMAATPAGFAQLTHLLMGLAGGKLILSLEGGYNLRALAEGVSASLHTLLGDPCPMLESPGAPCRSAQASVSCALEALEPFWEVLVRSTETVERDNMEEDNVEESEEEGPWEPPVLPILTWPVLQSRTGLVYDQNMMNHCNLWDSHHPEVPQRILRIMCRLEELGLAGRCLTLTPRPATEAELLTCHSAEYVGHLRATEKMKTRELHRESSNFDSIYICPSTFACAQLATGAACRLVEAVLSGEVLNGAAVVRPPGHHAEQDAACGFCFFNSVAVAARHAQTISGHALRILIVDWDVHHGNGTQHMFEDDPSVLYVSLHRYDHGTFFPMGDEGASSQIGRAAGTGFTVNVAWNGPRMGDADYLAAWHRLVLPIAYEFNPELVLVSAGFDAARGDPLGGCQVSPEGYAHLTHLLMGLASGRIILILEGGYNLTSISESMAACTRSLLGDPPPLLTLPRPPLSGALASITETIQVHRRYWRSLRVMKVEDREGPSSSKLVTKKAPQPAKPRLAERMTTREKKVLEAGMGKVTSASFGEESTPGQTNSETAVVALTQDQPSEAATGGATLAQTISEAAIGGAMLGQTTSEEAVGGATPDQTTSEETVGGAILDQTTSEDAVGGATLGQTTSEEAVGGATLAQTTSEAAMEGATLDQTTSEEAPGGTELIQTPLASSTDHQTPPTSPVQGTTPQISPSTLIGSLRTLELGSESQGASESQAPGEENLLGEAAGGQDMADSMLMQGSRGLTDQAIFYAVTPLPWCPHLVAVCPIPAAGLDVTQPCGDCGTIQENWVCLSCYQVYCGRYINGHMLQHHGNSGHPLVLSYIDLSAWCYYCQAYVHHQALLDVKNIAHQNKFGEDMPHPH
Kind of assay: Induction of HDAC6 degradation in human HL-60 cells after 6 hrs by Western immunoassay. Type of assay: cell-based.

Assay [2] concerns the target T2, Protein deacetylase HDAC6 (Homo sapiens) (UniProt Q9UBN7).
T2 sequence (whole entry): T1 sequence (Q9UBN7 whole entry)
Nature of the assay: Induction of HDAC6 degradation in human U-266 cells at 100 to 1000 nM incubated for 24 hrs by Western blot analysis. The settings on record: dose 100-1000 nM. The class given is cell-based.

Assay [3] addresses T1, Protein deacetylase HDAC6. Nature of the assay: Inhibition of recombinant full length N-terminal GST-tagged human HDAC6 (1 to 1215 residues) using Z-Lys(Ac)-AMC as substrate preincubated for 90 mins followed by trypsin addition and measured after 30 mins by fluorescence based microplate reader analysis.
Assay [4] deals with T2, Protein deacetylase HDAC6 (Homo sapiens). Kind of assay: Induction of HDAC6 degradation in human HL-60 cells at 0.1 to 10 uM after 6 hrs by Western blot analysis. Type of assay: cell-based. The note with it: dose 0.1-10 µM.
The target is the same in assay [5]. Kind of assay: Induction of HDAC6 degradation in human HL-60 cells assessed as maximum degradation after 6 hrs by Western immunoassay. The class given is cell-based.
Assay [6] addresses T3, Histone deacetylase 1 (Homo sapiens, UniProt Q13547). Nature of the assay: Inhibition of recombinant full length C-terminal His/Flag-tagged human HDAC1 (1 to 482 residues) using Z-Lys(Ac)-AMC as substrate preincubated for 90 mins followed by trypsin addition and measured after 30 mins by fluorescence based microplate reader analysis.
Assay [7] deals with T1, Protein deacetylase HDAC6. Kind of assay: Induction of HDAC6 degradation in human HL-60 cells assessed as hyperacetylation of alpha-tubulin after 6 hrs by Western immunoassay. The class given is cell-based.
Assay [8] concerns the target T2, Protein deacetylase HDAC6 (Homo sapiens). Kind of assay: Induction of HDAC6 degradation in human HL-60 cells assessed as hyperacetylation of alpha-tubulin at 0.1 to 10 uM after 6 hrs by Western blot analysis. The class given is cell-based. The settings on record: dose 0.1-10 µM.
Assay [9] has the same target. Kind of assay: Induction of HDAC6 degradation in human U-266 cells assessed as hyperacetylation of alpha-tubulin at 100 to 1000 nM incubated for 24 hrs by Western blot analysis. The class given is cell-based. The settings on record: dose 100-1000 nM.
The target is the same in assay [10]. Nature of the assay: Induction of Hitbit-fused HDAC6 degradation in human K562 cells at 1 uM after 5.5 to 7.5 hrs by NanoGlo HiBit lytic assay. Type of assay: cell-based. The settings on record: time 5.5-7.5 hrs.
The target is the same in assay [11]. Kind of assay: Induction of HDAC6 degradation in human HL-60 cells at 1 uM after 3 to 6 hrs by fluorescence microscopy analysis. Type of assay: cell-based. The note with it: time 3-6 hrs.
The subject of assay [12] is MOLM-13. Nature of the assay: Induction of cell cycle arrest in human MOLM-13 cells assessed as reduction in G2/M phase population incubated for 48 hrs by PI staining based flow cytometry analysis. Type of assay: functional. The note with it: dose 8-24 µM, DDE = dose-dependent effect.
Assay [13] concerns MOLM-13. Nature of the assay: Induction of cell cycle arrest in human MOLM-13 cells assessed as increase in sub-G1 phase population at 16 uM incubated for 48 hrs by PI staining based flow cytometry analysis (reference value: […]). Type of assay: functional.
Assay [14] concerns MOLM-13. Kind of assay: Induction of cell cycle arrest in human MOLM-13 cells assessed as increase in sub-G1 phase population incubated for 48 hrs by PI staining based flow cytometry analysis. Type of assay: functional. The settings on record: dose 8-24 µM, DDE = dose-dependent effect.
The subject of assay [15] is MOLM-13. Nature of the assay: Induction of apoptosis in human MOLM-13 cells after 48 hrs by Annexin-V and PI staining based flow cytometry assay. Type of assay: functional, cell-based. The note with it: dose 8-24 µM, DDE = dose-dependent effect.
The target in assay [16] is T2, Protein deacetylase HDAC6 (Homo sapiens). Nature of the assay: Induction of HDAC6 degradation in human HL-60 cells at 100 nM after 6 hrs by fluorescence microscopy analysis. The class given is cell-based.
The target in assay [17] is T3, Histone deacetylase 1. Kind of assay: Induction of HDAC1 degradation in human HL-60 cells assessed as hyperacetylation of histone H3 at 0.1 to 10 uM after 6 hrs by Western blot analysis. The class given is cell-based. The note with it: dose 0.1-10 µM.
The test system of assay [18] is MOLM-13. Kind of assay: Induction of cell cycle arrest in human MOLM-13 cells assessed as increase in sub-G1 phase population at 24 uM incubated for 48 hrs by PI staining based flow cytometry analysis (reference value: […]). Type of assay: functional.
The test system of assay [19] is MOLM-13. Nature of the assay: Induction of cell cycle arrest in human MOLM-13 cells assessed as increase in sub-G1 phase population at 8 uM incubated for 48 hrs by PI staining based flow cytometry analysis (reference value: […]). Type of assay: functional.
In assay [20] the target is T2, Protein deacetylase HDAC6 (Homo sapiens). Kind of assay: Induction of HDAC6 degradation in human HL-60 cells assessed as hyperacetylation of histone H3 at 1 uM after 24 hrs. Type of assay: cell-based.
Assay [21] deals with MOLM-13. Nature of the assay: Cytotoxicity against human MOLM-13 cells assessed as reduction in cell viability incubated for 72 hrs by ATP based Celltiter-glo luminescent assay. The settings on record: MOLM-13, 72 h. Type of assay: functional.
Assay [22] has as its target T2, Protein deacetylase HDAC6 (Homo sapiens). Nature of the assay: Induction of HDAC6 degradation in human HL-60 cells at 100 nM after 3 hrs by fluorescence microscopy analysis. Type of assay: cell-based.

T3 sequence (Q13547 whole entry, the tested form may be a part): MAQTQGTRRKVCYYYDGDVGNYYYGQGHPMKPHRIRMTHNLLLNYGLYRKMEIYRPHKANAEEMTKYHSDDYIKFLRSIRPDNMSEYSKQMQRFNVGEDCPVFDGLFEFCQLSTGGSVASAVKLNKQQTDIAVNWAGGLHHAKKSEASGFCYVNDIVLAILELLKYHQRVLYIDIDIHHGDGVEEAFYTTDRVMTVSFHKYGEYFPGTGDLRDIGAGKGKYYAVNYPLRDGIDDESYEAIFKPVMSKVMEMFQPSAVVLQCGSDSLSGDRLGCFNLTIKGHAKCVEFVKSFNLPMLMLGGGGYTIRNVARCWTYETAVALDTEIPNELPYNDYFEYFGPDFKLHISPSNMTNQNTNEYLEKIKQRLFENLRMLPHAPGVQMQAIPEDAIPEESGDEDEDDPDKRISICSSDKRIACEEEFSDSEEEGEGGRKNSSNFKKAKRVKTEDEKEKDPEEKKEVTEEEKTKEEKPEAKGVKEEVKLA

Take `Cc1nc2cc(NC(=O)CCCCCCCNC(=O)COc3cccc4c3C(=O)N(C3CCC(=O)NC3=O)C4=O)ccc2n1Cc1ccc(C(=O)NO)cc1F` (stereo not drawn): half-maximal degradation in [1] (DC50) was put at 19.4 nM. Also, the result in [2], in assay [4], in assay [8], in assay [9] and in assay [10] was Active. Also, the pIC50 in [3] and in assay [6] was 6.19 each time. Further, the Emax in [5] turned out to be 92.8%. Besides, the pEC50 in [7] was 5.26.
As to `O=C(CCCCCCNC(=O)c1ccc(NC(=O)CCOCCOCCOCCNC(=O)COc2cccc3c2C(=O)N(C2CCC(=O)NC2=O)C3=O)cc1)NO` (stereo not drawn), the pIC50 in assay [3] was 7.77; in assay [6], 6.79.
The matching figures for `O=C(CCCCCCNC(=O)c1ccc(NC(=O)CCOCCOCCOCCOCCNC(=O)CNc2cccc3c2C(=O)N(C2CCC(=O)NC2=O)C3=O)cc1)NO` (stereo not drawn): 7.82 and 6.73.
Take `O=C(CCCCCCNC(=O)c1ccc(NC(=O)COCCOCCNC(=O)COc2cccc3c2C(=O)N(C2CCC(=O)NC2=O)C3=O)cc1)NO` (stereo not drawn): the outcome in assay [4] was Active.
As to `O=C(CCCCCCNC(=O)c1ccc(NC(=O)CCOCCOCCOCCOCCNC(=O)COc2cccc3c2C(=O)N(C2CCC(=O)NC2=O)C3=O)cc1)NO` (stereo not drawn), the pIC50 in assay [3] was 7.68; in [6], 6.68.
In the same order, the values of `Cc1nc2cc(NC(=O)CCOCCOCCOCCOCCNC(=O)CNc3cccc4c3C(=O)N(C3CCC(=O)NC3=O)C4=O)ccc2n1Cc1ccc(C(=O)NO)cc1F` (stereo not drawn) are 5.85 and 5.85.
As to `O=C(CCCCCCNC(=O)c1ccc(NC(=O)COCCNC(=O)COc2cccc3c2C(=O)N(C2CCC(=O)NC2=O)C3=O)cc1)NO` (stereo not drawn), the negative-log IC50 (pIC50) is 7.92 in [3] and 6.81 in [6].
In the case of `O=C(CCCCCCNC(=O)c1ccc(NC(=O)CCCCCCCNC(=O)COc2cccc3c2C(=O)N(C2CCC(=O)NC2=O)C3=O)cc1)NO` (stereo not drawn), the outcome in assay [11], in [2], in [4], in assay [8], in assay [16] and in assay [9] was Active. The outcome in assay [17], in [20], in [22] and in assay [10] was Active. The Activity result in [12] is “Dde”; in assay [13], 9.9%; in assay [14] it was “Dde”; in [15], “Dde”; in [18], 13.4%; in assay [19], 7.5%. Besides, the Emax in assay [5] was determined as 84.5%. Besides, the pIC50 in assay [21] was 4.76.
On to `Cc1nc2cc(NC(=O)CCOCCOCCOCCOCCNC(=O)COc3cccc4c3C(=O)N(C3CCC(=O)NC3=O)C4=O)ccc2n1Cc1ccc(C(=O)NO)cc1F` (stereo not drawn), for which the pIC50 in assay [3] and in assay [6] was 5.83 throughout.
In the case of `Cc1nc2cc(NC(=O)CCOCCOCCOCCNC(=O)COc3cccc4c3C(=O)N(C3CCC(=O)NC3=O)C4=O)ccc2n1Cc1ccc(C(=O)NO)cc1F` (stereo not drawn), the pIC50 in assay [3] and in assay [6] was 5.88 each time.
